For one test, the system named is TP53. The test is described as follows: Immunofluorescence staining of TP53. The test is classed as cell-based, human. The conditions noted are these: SW480, 24 h; 1a 1 μM; etoposide 100 nM. Here is the method:
Cell Signaling Technology (Danvers, MA, USA), respectively. Horseradish-peroxidase-linked secondary antibodies, anti-mouse IgG (Fc specific) antibody (#7076S) and anti-rabbit IgG antibody (#7074S) were purchased from Cell Signaling Technology (Danvers, MA, USA). Anti-ß-actin (AC-15) (A5441, 1:2000) was obtained from Sigma-Aldrich (St. Louis, MO, USA).
SW480 and CT26 cells were grown at a density of 6.7x10^4 cells/mL on 8-well glass coverslips (80841, ibidi GmbH, Gräfelfing, Germany) in 300 µL complete media. The next day, cells were treated with respective compounds for 24 h. Cells were fixed with 4%(v/v) paraformaldehyde for 15 min at RT, followed by washing, blocking and permeabilization with 5%(w/v) BSA and […]
(1 : 500) were diluted in 1% BSA-0.3% Triton-X-100 in PBS and incubated overnight at 4 °C.
One well was incubated without primary antibody as background control. Cells were washed and stained with secondary goat anti-mouse AlexaFlour-488 (1 : 500 dilution, A-11029, Thermo Fisher Scientific) or goat anti-rabbit AlexaFlour-488 (1 : 500 dilution, A-11034, Thermo Fisher Scientific) antibodies for 1 h at RT. Following, cells were stained with 0.2% Wheat Germ Agglutinin (WGA)-Rhodamine (RL-1022, Vector Laboratories, Inc.) and 0.1% DAPI (62248, Thermo Fisher Scientific) for staining of plasma membrane and nuclei, respectively, according to manufacturer’s recommendations. […]

Test [1] deals with T1, ATP-dependent RNA helicase DDX3X (Homo sapiens, UniProt O00571).
T1 construct: endogenous in cells; host or cells: SW480 whole cell lysate
The test is described as follows: Peptide centric local stability assay in SW480 whole cell lysate. Format: binding. As to conditions: 1 μM. The text has this:
The method relies on a limited-proteolysis strategy, where ligand-binding on target proteins is expected to increase the stability of the proteins against proteolytic digestion. This specifically enables the identification of target proteins of small molecules. […] Being a ruthenium(arene) derivative, plecstatin-1 was used to assess potential non-specific interactors of the ruthenium(cymene) fragment. […] However, among the selective interaction partners, we found specific peptides of ATP-dependent RNA helicase DDX3X, tubulin alpha-1A (TUBA1A) and albumin (ALB). Several peptides of TUBA1A and ALB were also found to be stabilized by plecstatin-1 indicating low specificity.
Peptide Local Stability Assay
SW480 cancer cells were cultivated in complete medium as above in two T75 adherent flasks.
The protein extraction was performed on ice. The flasks were washed twice with PBS (1×, 5 mL) and the wash solution was completely removed. Then, PBS (1×, 2mL, containing 1% PPC) was added in each T75 flak. The cells were scraped off and the cell suspension was transferred to 15 mL falcon tubes. […]
The clear supernatant was pooled in a 5 mL Eppendorf tube and kept on ice. The protein concentration was determined using a BCA assay as described above and adjusted to 1 µg/µL using PBS (1×, containing 1% PPC). […]

T1 sequence (O00571 whole entry): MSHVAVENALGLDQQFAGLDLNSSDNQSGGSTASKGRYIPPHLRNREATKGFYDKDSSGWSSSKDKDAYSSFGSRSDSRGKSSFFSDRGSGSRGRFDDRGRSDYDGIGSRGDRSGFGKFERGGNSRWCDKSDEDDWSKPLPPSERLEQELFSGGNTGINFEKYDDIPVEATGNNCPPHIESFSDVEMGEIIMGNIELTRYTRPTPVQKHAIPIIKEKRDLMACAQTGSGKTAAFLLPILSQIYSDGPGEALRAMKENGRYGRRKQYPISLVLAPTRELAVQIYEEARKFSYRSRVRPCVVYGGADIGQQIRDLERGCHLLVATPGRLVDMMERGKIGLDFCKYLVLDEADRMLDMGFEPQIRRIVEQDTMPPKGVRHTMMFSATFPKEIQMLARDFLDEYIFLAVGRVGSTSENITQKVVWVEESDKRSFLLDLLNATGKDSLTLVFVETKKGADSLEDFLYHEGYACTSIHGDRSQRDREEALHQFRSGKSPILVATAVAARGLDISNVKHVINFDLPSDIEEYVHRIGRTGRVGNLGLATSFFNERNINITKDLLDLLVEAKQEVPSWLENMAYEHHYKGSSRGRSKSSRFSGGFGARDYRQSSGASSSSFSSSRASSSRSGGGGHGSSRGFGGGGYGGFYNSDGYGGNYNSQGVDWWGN

In the case of `CCC1=C2[O][Ru][O]C2(n2cccn2)c2ccccc2C1=O.Cc1ccc(C(C)C)cc1` (centres unmarked) [Compound 1a, [(3-ethyl-4-oxo-(pyrazolyl)-dihydronaphthalene)(cymene)ruthenium(II)]], the TP53 immunofluorescence signal entry in the test on TP53 is reported as “decisive loss of TP53 signal intensity”. The “direct interaction with DDX3X” value in test [1] is “most probable direct binding partner”.

The values above are taken from PMC12320299 (Chemical Science, 2025).
